How the values were obtained:
[1] = tested on: Epidermoid carcinoma cell line; experiment: Cytotoxicity activity against vincristine-resistant human Epidermoid carcinoma cell line assessed as reduction in cell growth; assay type: functional, cell-based
KB [2] = experiment: Cytotoxicity activity against vincristine-resistant human KB cells assessed as reduction in cell growth; assay type: functional, cell-based
K562/A02 = experiment: Antiproliferative activity against human K562/A02 cells assessed as reduction in cell viability measured after 2 days by MTT assay; assay type: functional, cell-based; conditions: K562/A02, 48 h
KB [3] = experiment: Antiproliferative activity against human KB cells assessed as reduction in cell growth incubated for 2 days by MTT assay; assay type: functional, cell-based; conditions: 48 h
[4] = Cytotoxicity against human HUVEC cells assessed as reduction in cell viability incubated for 2 hrs by MTT assay; assay type: toxicity, cell-based
[5] = Cytotoxicity against human hypertrophic scar Fibroblast cells assessed as inhibition of cell growth incubated for 2 hrs by MTT assay; assay type: toxicity, cell-based
PC-3 = experiment: Cytotoxicity activity against human PC-3 cells assessed as reduction in cell viability by MTT assay; assay type: functional, cell-based
HT-29 [6] = experiment: Cytotoxicity activity against human HT-29 cells assessed as reduction in cell viability by SRB assay; assay type: functional, cell-based
A549 [7] = experiment: Antiproliferative activity against multi-drug resistant human A549 cells assessed as reduction in cell viability; assay type: functional, cell-based
HeLa [8] = experiment: Antiproliferative activity against human Hela cells assessed as reduction in cell viability measured after 48 hrs by MTT assay; assay type: functional, cell-based
KB [9] = experiment: Cytotoxicity against human KB cells assessed as reduction in cell viability measured after 48 hrs by MTT assay; assay type: functional, cell-based
[10] = Cytotoxicity activity against human U87MG.deltaEGFR cells assessed as reduction in cell viability incubated for 72 hrs by MTT assay; assay type: functional, cell-based
PC-9 = experiment: Antitumor activity in gefitinib-resistant human PC-9 cells xenografted Sprague-Dawley mouse at 40 mg/kg assessed as tumor growth inhibition administered for 5 days; assay type: functional; parameters: scale not given: the % may be the effect or the level left; conditions: time 5 day
NCI-H460 = experiment: Antitumor activity in human NCI-H460 cells xenografted […] mouse at 40 mg/kg assessed as tumor growth inhibition; assay type: functional; parameters: scale not given: the % may be the effect or the level left
NCI-H1650 [11] = experiment: Cytotoxicity activity against drug-sensitive human NCI-H1650 cells assessed as reduction in cell viability measured after 72 hrs by MTT assay; assay type: functional, cell-based; conditions: NCI-H1650, 72 h
CCRF-CEM = experiment: Cytotoxicity against drug-sensitive human CCRF-CEM cells assessed as reduction in cell viability measured after 72 hrs by MTT assay; assay type: functional, cell-based
NCI-H1650 [12] = experiment: Antitumor activity in human NCI-H1650 cells xenografted Sprague-Dawley mouse at 40 mg/kg assessed as tumor growth inhibition administered for 5 days; assay type: functional; parameters: scale not given: the % may be the effect or the level left; conditions: time 5 day
NCI-H1975 = experiment: Antitumor activity in human NCI-H1975 cells xenografted Sprague-Dawley mouse at 40 mg/kg assessed as tumor growth inhibition administered for 5 days; assay type: functional; parameters: scale not given: the % may be the effect or the level left; conditions: time 5 day
HepG2 [13] = experiment: Anticancer activity against human HepG2 cells assessed as inhibition of cell growth; assay type: functional, cell-based
HeLa [14] = experiment: Anticancer activity against human HeLa cells assessed as inhibition of cell growth; assay type: functional, cell-based
LS180 [15] = experiment: Antitumor activity against human LS180 cells xenografted in ICR mouse assessed as tumor growth inhibition at 4.5 mg/kg; assay type: functional; parameters: scale not given: the % may be the effect or the level left
LS180 [16] = experiment: Antitumor activity against human LS180 cells xenografted in ICR mouse assessed as tumor growth inhibition at 45 mg/kg; assay type: functional; parameters: scale not given: the % may be the effect or the level left
CWR22R = experiment: Cytotoxicity activity against human 22Rv1 assessed as reduction in cell viability by MTT assay; assay type: functional, cell-based
HepG2 [17] = experiment: Cytotoxicity activity against human HepG2 cells assessed as reduction in cell viability incubated for 72 hrs by MTT assay; assay type: functional, cell-based; conditions: HepG2, 72 h
HT-29 [18] = experiment: Cytotoxicity activity against human HT-29 cells assessed as reduction in cell growth measured after 72 hrs by MTT assay; assay type: functional, cell-based; conditions: HT-29, 72 h
MCF7 = experiment: Cytotoxicity activity against human MCF7 cells assessed as reduction in cell viability incubated for 72 hrs by MTT assay; assay type: functional, cell-based; conditions: MCF7, 72 h
A549 [19] = experiment: Cytotoxicity activity against human A549 cells assessed as reduction in cell viability incubated for 72 hrs by MTT assay; assay type: functional, cell-based; conditions: A549, 72 h
A2780 = experiment: Antiproliferative activity against human A2780 cells assessed as inhibition of cell proliferation measured after 24 hrs by MTT assay; assay type: functional, cell-based; conditions: A2780, 24 h

SMILES: CC[C@@]12CC(C(=O)OC)=C3N=C4C(=CC(=O)C(O)=C4OC)[C@@]34CCN([C@@H]3c5cc6c(cc5O[C@@H]3[C@H]1O)NC1=C(C(=O)OC)C[C@]3(CC)[C@@H]5O[C@@H]5CN5CC[C@@]16[C@@H]53)[C@H]42
- IC50 [1]: 2900 nM
- IC50 (KB [2]): 10 nM

SMILES: COc1ccc2[nH]cc(C(=O)C(=O)N[C@@H]3c4cc5c(cc4[C@@H](c4cc(OC)c(OC)c(OC)c4)[C@H]4C(=O)OC[C@@H]43)OCO5)c2c1
- IC50 (K562/A02): 4.71 µM
- IC50 (KB [3]): 1010 nM
- IC50 at 2 h [4]: 15.1 µM
- IC50 at 2 h [5]: 26.1 µM

SMILES: C/C=C1\CN2CC[C@@]34c5c(ccc6c5OC5OC[C@@H]7[C@@H](C[C@H]8c9c(c%10ccccc%10n9C)C[C@@H]7N8C)[C@@H]5[C@@H]6C)N(C)[C@H]3[C@@H]2C[C@H]1[C@@H]4C(=O)OC (stereo partly specified)
- IC50 (PC-3): 7.2 µM
- IC50 (HT-29 [6]): 300 nM

SMILES: CCOC(=O)c1c(-c2ccc(F)cc2)oc2ccc(OCCCCCCN3C(=O)C(=O)c4cc(OC)ccc43)cc12
- IC50 (A549 [7]): 76.9 µM

SMILES: O=Cc1c[nH]c2ccccc12 [3-FORMYLINDOLE]
- IC50 (HeLa [8]): > 100 µM

SMILES: CC[C@@]12CCCN3CCc4c(n(c5ccccc45)[C@H](c4ccc5c(c4)[C@@]46CCN7CCC[C@]8(CC[C@]4(C[C@@H]8C(=O)OC)N5)[C@H]76)C1)[C@H]32
- IC50 (KB [9]): 7.8 µM

SMILES: COC(=O)[C@H]1[C@H]2C[C@@H]3c4[nH]c5cc(OC)ccc5c4CCN3C[C@H]2C[C@@H](OC(=O)c2cc(OC)c(OC)c(OC)c2)[C@@H]1OC [RESERPINE]
- IC50 [10]: 9.15 µM

SMILES: CCc1c(CO)c(CO)c2n1Cc1c(c3ccccc3n1C)C2
- Activity (PC-9): 73%
- Activity (NCI-H460): 65%
- IC50 (NCI-H1650 [11]): 3.5 µM
- IC50 (CCRF-CEM): 410 nM
- Activity (NCI-H1650 [12]): 30%
- Activity (NCI-H1975): 26%

SMILES: COc1cc([C@@H]2c3cc4c(cc3[C@@H](O[C@@H]3O[C@@H]5CO[C@@H](C)O[C@H]5[C@H](O)[C@H]3O)[C@H]3COC(=O)[C@H]23)OCO4)cc(OC)c1O [ETOPOSIDE]
- IC50 (K562/A02): 10.6 µM
- IC50 (KB [3]): 1020 nM
- IC50 (HepG2 [13]): 6.94 µM
- IC50 (HeLa [14]): > 50 µM

SMILES: CCO[C@]1(C)C[C@@H]2CN(CCc3c([nH]c4ccccc34)[C@@](C(=O)OC)(c3cc4c(cc3OC)N(C)C3[C@]45CCN4CC=C[C@@](CC)([C@@H](OC(C)=O)[C@]3(O)C(=O)OC)[C@H]45)C2)C1 (stereo partly specified)
- Activity (LS180 [15]): 40.7%
- Activity (LS180 [16]): 67.8%

SMILES: CC(=O)O[C@]1(C)CO[C@@]23CC[C@@]4(C)[C@@](O)(CC[C@H]5Cc6c([nH]c7cc(Cl)ccc67)[C@@]54C)C2=CC(=O)[C@@H]1O3
- IC50 (CWR22R): 3.8 µM
- IC50 (PC-3): 4.86 µM

SMILES: CCC1CN(C)[C@H]2Cc3c([nH]c4ccccc34)[C@@H](n3c4c(c5c(OC)c([C@H]6C[C@H]7[C@H](CC)CN(C)[C@@H](Cc8c6[nH]c6ccccc86)[C@H]7C(=O)OC)ccc53)CCN3C[C@H]5CC[C@H]4[C@H]3[C@@H]5CC)C[C@@H]1[C@@H]2C(=O)OC (single isomer, unassigned)
- IC50 (HepG2 [17]): 12.6 µM
- IC50 (HT-29 [18]): 11.4 µM
- IC50 (MCF7): 11.3 µM
- IC50 (A549 [19]): 10.2 µM

SMILES: Fc1ccc(C2=NCc3c([nH]c4ccccc34)S2)cc1
- IC50 (A2780): 9.3 µM
